Results on eight molecules are retold here after patent publication US20020183300A1, “Zinc ionophores as anti-stress agents” (priority 2001, published 2002).

In assay [1] the test system is cultured HUVEC, isolated cardiac myocytes, cultured cerebellar neurons. Briefly: Zinc ionophore screening with Fura-2 loaded cells (fluorescence ratio 340/380 nm). It counts as cell-based, human; rabbit; mouse. As to conditions: for ionophore activity compared across cell types: HUVEC, cardiac myocytes, cerebellar neurons; for zinc ionophore activity (slope of Fura-2 fluorescence intensity ratio): zinc-complexed holo-ionophore, 1 μM in superfusion buffer, 37° C. The procedure: Human umbilical vein endothelial cells (HUVEC) were purchased from Clonetics (San Diego, Calif.) and passages DeKeyser F. G. et al. (2000) Neuroimmunomodulation 7:182-188; Revilla V. et al. Brain Res. Bull 49:413-418; Troullos E. et al. (1997) Clin. Pharmacol. Ther. 62:74-81 were used for these studies. Cells were cultured on flame-sterilzed glass coverslips in Endothelial Basal Medium (Clonetics) supplemented with 10 ng/ml human recombinant epidermal growth factor, 1.0 ug/ml hydrocortisone, 50 ug/ml gentamicin, 50ng/ml amphotetericin B, 12 ug/ml bovine brain extract and 2% v/v fetal bovine serum (all from Clonetics), in a humidified chamber at 37° C. and 5% CO2. To maintain cell populations, proliferating HUVEC were passaged at 80-90% confluency.
Cardiac myocytes were isolated from the ventricular septum of adult rabbit hearts, following collagenase digestion, in a manner similar to that described previously (Turan, B. et al., (1997) Am. J. Physiol. 272:H2095-H2106). The modification consisted of introducing low concentrations of CaCl2 during the perfusion with collagenase and the dispersion of the myocytes. Hearts were perfused for about 2 min by gravity under a hydrostatic pressure of 1 m, with a nominally Ca^2+-free solution containing (in mM): NaCl, 145; KCl, 5; MgSO4, 1.2; Na2HPO4, 1.8; HEPES, 5; glucose, 10; pH adjusted to 7.4 with NaOH. Forty ml of this perfusate were then supplemented with collagenase (1 mg/ml) and perfusion was continued with recirculation. […] The flow rate was then adjusted to 15 ml/min and 50 μM CaCl2 was added to the collagenase solution. Perfusion with this solution was continued for another 15 to 18 min, followed by a 2 min washout of the enzyme with fresh perfusate containing 100 μM CaCl2 and no collagenase. The hearts were then removed from the apparatus and the ventricular septum isolated and minced. Dissociation of the cells was obtained by gentle agitation of the minced tissue in 50 ml of the same perfusing solution. Following filtration through a 200 μm nylon mesh, the cells were allowed to settle and the supernatant was replaced with a solution containing 2 mM CaCl2. Cells were kept at 37° C. in this pre-oxygenated solution and were studied within 8 hours after isolation, cellular viability was ensured by regularly replacing the incubation solution.
Primary cultures of mouse cerebellar granule neurons were obtained from dissociated cerebella of postnatal day 8 or 9 mice according to the following protocol (Cregan et al., (1999) J. Neurosci. 19:7860-7869, incorporated herein by reference). Brains were removed and placed into separate dishes containing solution A (124 mM NaCl, 5.37 mM KCl, 1 mM NaH2 P04, 1.2 mM MgSO4, 14.5 mM D-(1)-glucose, 25 mM HEPES, 3 mg/ml BSA, pH 7.4) in which the cerebella were dissected, meninges removed, and tissue sliced into small pieces. The tissue was briefly centrifuged and transferred to solution A containing 0.25 mg/ml trypsin, then incubated at 37° C. for 18 min. After the addition of 0.082 mg/ml trypsin inhibitor (Boehringer Mannheim, Indianapolis, Ind.) and 0.25 mg/ml DNase I (Boehringer Mannheim), the tissue was incubated at 25° C. for 2 min. After a brief centrifugation, the resulting pellet was gently titrated in solution A yielding suspension that was further incubated for 10 min at 25° C. in solution A containing 2.7 mM MgSO4 and 0.03 mM CaCl2. After a final centrifugation the pellet was resuspended in EMEM media (Sigma, St. Louis, Mo.) containing 10% dialyzed FBS (Sigma), 25 mM KCl, 2 mM glutamine (Life Technologies BRL, Gaithersburg, Md.), 25 mM glucose, and 0.1 mg/ml gentamycin (Sigma) and filtered through a cell strainer (size 70 μm; Falcon). Cells were plated on glass coverslips coated with poly-D-lysine (Sigma) in Nunc fourwell dishes at a density of 1.5×10^6 cells per milliliter of medium. Cytosine-arabinoside (10 μM; Sigma) was added 24 hr after plating.

Assay [2] deals with NF-κB. Briefly: NF-κB electrophoretic mobility shift assay on brain nuclear extracts, coronary artery ligation model. The conditions noted are these: rats subjected to coronary occlusion 45 min, reperfusion 4 h; i.v. boluses at 0, 1, 2 h postreperfusion; ZnP 1.2 μg/kg, ZnDDC 8.3 ng/kg. It counts as in vivo, rat. Here is the method: (§1) Coronary artery ligation model Male Sprague-Dawley rats (250-300 g) were anesthetized, intubated and ventilated. The chest was opened and the coronary artery was ligated. After 45 min, the suture was released and reperfusion was continued for 4 h. Boluses (0.5 ml) of the zinc ionophores ZnP (1.2 μg/kg) and ZnDDC (8.3 ng/kg) were administered intravenously in 4% DMSO in saline at 0, 1, and 2 h postreperfusion. After 4 h of reperfusion the ligature was retied, and Evans blue dye was infused intravenously to demarcate the area at risk. The rats were then killed by exsanguination and the brain was collected for analysis. Sham-surgery rats were treated in an identical manner but without tying the ligature around the coronary artery.
(§2) Brain samples were homogenized on ice using six slow strokes of a Teflon pestle homogenizer at 1000 rpm in 8 volumes of buffer containing 0.25 M sucrose, 10 mM HEPES, pH 7.6, 25 mM KCl, 1 mM EDTA, 10% glycerol, 0.15 mM spermine, and 0.5 mM spermidine. […] Protein concentrations were determined using the Bio Rad protein assay.
(§3) Double-stranded consensus oligonucleotides for NF-kB and Spl (Promega, Madison, Wis.) were 5 radiolabelled with g[^32P]ATP (Amersham, Arlington Heights, Ill.). […] The intensity of the bands was quantitated with a densitometer and commercially available software (Molecular Analyst, Bio-Rad Laboratories, Hercules, Calif.).
(A gel shift assay detects complexes by their altered migration in electrophoresis.)

In assay [3] the test system is Spl. Briefly: Spl electrophoretic mobility shift assay on brain nuclear extracts, coronary artery ligation model. It counts as in vivo, rat. As to conditions: rats subjected to coronary occlusion 45 min, reperfusion 4 h; ZnDDC 8.3 ng/kg i.v. at 0, 1, 2 h postreperfusion. The procedure: as §1, §2, §3

`Oc1c(I)cc(I)c2cccnc12` [5,7-Diiodo-8-hydroxyquinoline]: in assay [1], the zinc-ionophore properties result was “possess zinc-ionophore properties”, the “ionophore activity compared across cell types” value is given as “comparable in all three cell types tested” and the “zinc ionophore activity (slope of Fura-2 fluorescence intensity ratio)” value was 5,7-Diiodo-8-hydroxyquinoline ✓✓.

On to `Oc1cccc2cccnc12` [8-Hydroxyquinoline], for which, in assay [1], the zinc-ionophore properties entry was “possess zinc-ionophore properties” and the “zinc ionophore activity (slope of Fura-2 fluorescence intensity ratio)” value is 8-Hydroxyquinoline, ✓.

For the molecule `CCN(CC)C(=S)SSC(=S)N(CC)CC` [Disulfiram], the “zinc ionophore activity (slope of Fura-2 fluorescence intensity ratio)” value in assay [1] was “Disulfiram ✓✓”.

For `COc1ccc2c(c1)c(CC(=O)O)c(C)n2C(=O)c1ccc(Cl)cc1` [Indomethacin], in assay [1], the “zinc ionophore activity (slope of Fura-2 fluorescence intensity ratio)” value is on record as “Indomethacin ✓”.

For the molecule `S=C(S)N1CCCC1` [Pyrrolidinedithiocarbamate], the “zinc ionophore activity (slope of Fura-2 fluorescence intensity ratio)” value in assay [1] is “Pyrrolidinedithiocarbamate ✓✓”.

As to `CC1=C(/C=C/C(C)=C/C=C/C(C)=C/CO)C(C)(C)CCC1` [Vitamin A (all-trans-retinol), all-trans-retinol], in assay [1], the zinc-ionophore properties entry is given as “possess zinc-ionophore properties” and the “zinc ionophore activity (slope of Fura-2 fluorescence intensity ratio)” value is “Vitamin A (all-trans-retinol) ✓”.

Regarding `Cc1c(C)c2c(c(C)c1O)CC[C@@](C)(CCC[C@H](C)CCC[C@H](C)CCCC(C)C)O2` [Vitamin E, alpha-tocopherol], the zinc-ionophore properties entry in assay [1] is reported as “possess zinc-ionophore properties”.

As to `CCN(CC)C(=S)S` [ZNDDC, zinc-diethyldithiocarbamate], in assay [1], the zinc-ionophore properties entry is on record as “possess zinc-ionophore properties”, the “ionophore activity compared across cell types” value was “comparable in all three cell types tested” and the “zinc ionophore activity (slope of Fura-2 fluorescence intensity ratio)” value is “diethyldithiocarbamate ✓✓”. Moreover, the “NF-κB binding activity in the brain” value in assay [2] was “restored normal NF-κB binding activity”. Also, the “Spl binding activity in the brain (in words)” value in assay [3] is “restored Spl binding activity to normal”.
